# Where two headings read alike, the source gives them in different places.
# Target: T1, human α-synuclein (Homo sapiens, UniProt P37840)
# T1 construct: the full-length gene for untagged human α-synuclein was inserted; made in house; host or cells: E. coli BL21(DE3), plasmid derived from pT7 or pET11a
# Experiment: Cell-free Thioflavin T assay of α-synuclein aggregation (αSyn ThT Assay)
# Assay type: biochemical
# Details: αSyn 50 μM
# In short: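 Untagged full-length human α-synuclein from E. coli, 50 μM, with 20-40 μM ThT, 1% DMSO, compound at 20-100 μM and a glass bead, 37° C. with shaking. Fluorescence (ex 438/em 495 nm) read hourly to 73 h. Compound-only background subtracted and values normalised to vehicle at 36-72 h or final timepoint, giving % inhibition.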
# [1] = mean % inhibition of αSyn aggregation relative to DMSO control, compounds at 100 μM, read-out: αSyn ThT Assay % Inhibition
# [2] = compounds at 100 μM, class symbol, read-out: αSyn ThT Assay % Inhibition (activity range)
# [3] = class symbol, compounds 100 μM, read-out: αSyn ThT Assay % inhibition, activity range
# [4] = mean percent inhibition relative to DMSO control, compounds 100 μM, read-out: αSyn ThT Assay % inhibition
Compound,inhibition at 100 µM [1],inhibition at 100 µM [2],inhibition at 100 µM [3],inhibition at 100 µM [4]
"O=C(O)c1c(-c2ccccc2)sc2c(-c3cccc(C(F)(F)F)c3)c(Cc3cccc4ccccc34)cc(=O)n12 [Compound 051, 7-(naphthalen-1-ylmethyl)-5-oxo-2-phenyl-8-(3-(trifluoromethyl)phenyl)-5H-thiazolo[3,2-a]pyridine-3-carboxylic acid]",47%,31 to 60%,,
"O=C(O)C1n2c(c(-c3cccc(C(F)(F)F)c3)c(Cc3cccc4ccccc34)nc2=O)SC12CCCC2 (stereo not shown) [Compound 053, 7′-(naphthalen-1-ylmethyl)-5′-oxo-8′-(3-(trifluoromethyl)phenyl)-3′H,5′H-spiro[cyclopentane-1,2′-thiazolo[3,2-c]pyrimidine]-3′-carboxylic acid]",65%,> 60%,,
"O=C(O)C1CSc2c(-c3cccc(C(F)(F)F)c3)c(Cc3cccc4ccccc34)cc(=S)n21 (stereo not shown) [Compound 054, 7-(naphthalen-1-ylmethyl)-5-thioxo-8-(3-(trifluoromethyl)phenyl)-2,3-dihydro-5H-thiazolo[3,2-a]pyridine-3-carboxylic acid]",39%,31 to 60%,,
"O=C(O)C1CN(CCCO)S(=O)(=O)c2c(-c3cccc(C(F)(F)F)c3)c(Cc3cccc4ccccc34)cc(=O)n21 (stereo not shown) [Compound 056, 2-(3-hydroxypropyl)-8-(naphthalen-1-ylmethyl)-6-oxo-9-(3-(trifluoromethyl)phenyl)-3,4-dihydro-2H,6H-pyrido[1,2-e][1,2,5]thiadiazine-4-carboxylic acid 1,1-dioxide]",59%,31 to 60%,,
"O=C(O)C1CSc2c(-c3cccc(C(F)(F)F)c3)c(Cc3cccc4ccccc34)c(CO)c(=O)n21 (stereo not shown) [Compound 057, 6-(hydroxymethyl)-7-(naphthalen-1-ylmethyl)-5-oxo-8-(3-(trifluoromethyl)phenyl)-2,3-dihydro-5H-thiazolo[3,2-a]pyridine-3-carboxylic acid]",54%,31 to 60%,,
"CC1(C)Sc2c(-c3cccc(C(F)(F)F)c3)c(Cc3cccc4ccccc34)nc(=O)n2C1C(=O)O (stereo not shown) [Compound 059, 2,2-dimethyl-7-(naphthalen-1-ylmethyl)-5-oxo-8-(3-(trifluoromethyl)phenyl)-2,3-dihydro-5H-thiazolo[3,2-c]pyrimidine-3-carboxylic acid]",36%,31 to 60%,,
"O=C(O)c1c(CCc2ccccc2)sc2c(-c3cccc(C(F)(F)F)c3)c(Cc3cccc4ccccc34)cc(=O)n12 [Compound 062, 7-(naphthalen-1-ylmethyl)-5-oxo-2-phenethyl-8-(3-(trifluoromethyl)phenyl)-5H-thiazolo[3,2-a]pyridine-3-carboxylic acid]",87%,> 60%,,
"O=C(O)C1COc2c(-c3cccc(C(F)(F)F)c3)c(Cc3cccc4ccccc34)cc(=O)n21 (stereo not shown) [Compound 064, 7-(naphthalen-1-ylmethyl)-5-oxo-8-(3-(trifluoromethyl)phenyl)-2,3-dihydro-5H-oxazolo[3,2-a]pyridine-3-carboxylic acid]",37%,31 to 60%,,
"O=C(O)C1CN(C[C@H](O)CO)S(=O)(=O)c2c(-c3cccc(C(F)(F)F)c3)c(Cc3cccc4ccccc34)cc(=O)n21 (stereo partly drawn) [Compound 065a, 2-((S)-2,3-dihydroxypropyl)-8-(naphthalen-1-ylmethyl)-6-oxo-9-(3-(trifluoromethyl)phenyl)-3,4-dihydro-2H,6H-pyrido[1,2-e][1,2,5]thiadiazine-4-carboxylic acid 1,1-dioxide]",32%,31 to 60%,,
"Cc1c(Cc2cccc3ccccc23)c(-c2cccc(C(F)(F)F)c2)c2n(c1=O)C(C(=O)O)CN(C)S2(=O)=O (stereo not shown) [Compound 068, 2,7-dimethyl-8-(naphthalen-1-ylmethyl)-6-oxo-9-(3-(trifluoromethyl)phenyl)-3,4-dihydro-2H,6H-pyrido[1,2-e][1,2,5]thiadiazine-4-carboxylic acid 1,1-dioxide]",74%,> 60%,,
CN1CC(C(=O)O)n2c(c(-c3cccc(C(F)(F)F)c3)c(Cc3cccc4ccccc34)c(NCc3ccccc3)c2=O)S1(=O)=O (stereo not shown) [Compound 071],38%,31 to 60%,,
"O=C(O)C1CSc2c(-c3cccc(C(F)(F)F)c3)c(C(F)(F)c3cccc4ccccc34)cc(=O)n21 (stereo not shown) [Compound 073, 7-(difluoro(naphthalen-1-yl)methyl)-5-oxo-8-(3-(trifluoromethyl)phenyl)-2,3-dihydro-5H-thiazolo[3,2-a]pyridine-3-carboxylic acid]",76%,> 60%,,
"CCCN1CC(C(=O)O)n2c(c(-c3cccc(C(F)(F)F)c3)c(C(F)(F)c3cccc4ccccc34)cc2=O)S1(=O)=O (stereo not shown) [Compound 138, 8-(difluoro(naphthalen-1-yl)methyl)-6-oxo-2-propyl-9-(3-(trifluoromethyl)phenyl)-3,4-dihydro-2H,6H-pyrido[1,2-e][1,2,5]thiadiazine-4-carboxylic acid 1,1-dioxide]",,,> 60%,74%
"CCc1c(Cc2cccc3ccccc23)c(-c2cccc(C(F)(F)F)c2)c2n(c1=O)C(C(=O)O)CN2Cc1ccccc1 (stereo not shown) [Compound 140, 1-benzyl-6-ethyl-7-(naphthalen-1-ylmethyl)-5-oxo-8-(3-(trifluoromethyl)phenyl)-1,2,3,5-tetrahydroimidazo[1,2-a]pyridine-3-carboxylic acid]",,,31 to 60%,48%
"CCCN1CC(C(=O)O)n2c(c(-c3cccc(C(F)(F)F)c3)c(Cc3cccc4ccccc34)c(O)c2=O)S1(=O)=O (stereo not shown) [Compound 141, 7-hydroxy-8-(naphthalen-1-ylmethyl)-6-oxo-2-propyl-9-(3-(trifluoromethyl)phenyl)-3,4-dihydro-2H,6H-pyrido[1,2-e][1,2,5]thiadiazine-4-carboxylic acid 1,1-dioxide]",,,> 60%,79%
"CCCN1CC(C(=O)O)n2c(c(-c3cccc(C(F)(F)F)c3)c(Cc3cccc4ccccc34)c(Cl)c2=O)S1(=O)=O (stereo not shown) [Compound 142, 7-chloro-8-(naphthalen-1-ylmethyl)-6-oxo-2-propyl-9-(3-(trifluoromethyl)phenyl)-3,4-dihydro-2H,6H-pyrido[1,2-e][1,2,5]thiadiazine-4-carboxylic acid 1,1-dioxide]",,,31 to 60%,40%
"CCCN1CC(C(=O)O)n2c(c(-c3cccc(C(F)(F)F)c3)c(Cc3cccc4ccccc34)c(OCC)c2=O)S1(=O)=O (stereo not shown) [Compound 143, 7-ethoxy-8-(naphthalen-1-ylmethyl)-6-oxo-2-propyl-9-(3-(trifluoromethyl)phenyl)-3,4-dihydro-2H,6H-pyrido[1,2-e][1,2,5]thiadiazine-4-carboxylic acid 1,1-dioxide]",,,> 60%,96%
"CCCN1CC(C(=O)O)n2c(c(-c3cccc(C(F)(F)F)c3)c(Cc3cccc4ccccc34)c(NC(=O)C(C)C)c2=O)S1(=O)=O (stereo not shown) [Compound 152, 7-isobutyramido-8-(naphthalen-1-ylmethyl)-6-oxo-2-propyl-9-(3-(trifluoromethyl)phenyl)-3,4-dihydro-2H,6H-pyrido[1,2-e][1,2,5]thiadiazine-4-carboxylic acid 1,1-dioxide]",,,31 to 60%,54%
"CCCN1CC(C(=O)O)n2c(c(-c3cccc(C(F)(F)F)c3)c(Cc3cccc4ccccc34)c(NC(=O)CC)c2=O)S1(=O)=O (stereo not shown) [Compound 153, 8-(naphthalen-1-ylmethyl)-6-oxo-7-propionamido-2-propyl-9-(3-(trifluoromethyl)phenyl)-3,4-dihydro-2H,6H-pyrido[1,2-e][1,2,5]thiadiazine-4-carboxylic acid 1,1-dioxide]",,,31 to 60%,48%
"CCCNC(=O)c1c(Cc2cccc3ccccc23)c(-c2cccc(C(F)(F)F)c2)c2n(c1=O)C(C(=O)O)CN(C)S2(=O)=O (stereo not shown) [Compound 154, 2-methyl-8-(naphthalen-1-ylmethyl)-6-oxo-7-(propylcarbamoyl)-9-(3-(trifluoromethyl)phenyl)-3,4-dihydro-2H,6H-pyrido[1,2-e][1,2,5]thiadiazine-4-carboxylic acid 1,1-dioxide]",,,> 60%,89%
"O=C(O)C1CN(Cc2ccccc2)c2c(-c3cccc(C(F)(F)F)c3)c(C(F)(F)c3cccc4ccccc34)c(Br)c(=O)n21 (stereo not shown) [Compound 155, 1-benzyl-6-bromo-7-(difluoro(naphthalen-1-yl)methyl)-5-oxo-8-(3-(trifluoromethyl)phenyl)-1,2,3,5-tetrahydroimidazo[1,2-a]pyridine-3-carboxylic acid]",,,31 to 60%,60%
"CCNC(=O)c1c(Cc2cccc3ccccc23)c(-c2cccc(C(F)(F)F)c2)c2n(c1=O)C(C(=O)O)CN(C)S2(=O)=O (stereo not shown) [Compound 156, 7-(ethylcarbamoyl)-2-methyl-8-(naphthalen-1-ylmethyl)-6-oxo-9-(3-(trifluoromethyl)phenyl)-3,4-dihydro-2H,6H-pyrido[1,2-e][1,2,5] thiadiazine-4-carboxylic acid 1,1-dioxide]",,,> 60%,70%
"CN1CC(C(=O)O)n2c(c(-c3cccc(C(F)(F)F)c3)c(Cc3cccc4ccccc34)c(C(=O)NC(C)(C)C)c2=O)S1(=O)=O (stereo not shown) [Compound 158, 7-(tert-butylcarbamoyl)-2-methyl-8-(naphthalen-1-ylmethyl)-6-oxo-9-(3-(trifluoromethyl)phenyl)-3,4-dihydro-2H,6H-pyrido[1,2-e][1,2,5]thiadiazine-4-carboxylic acid 1,1-dioxide]",,,> 60%,79%
